For data set [1], the system named is ACTH-induced serum corticosterone in dexamethasone-suppressed mice. As to the kind of experiment: in vivo Serum Corticosteroid Inhibition Assay. To be noted: peptide alone 120 minutes after dexamethasone, blood one hour later. On the set-up: species or system FVB/N mice. From the text:
An in vivo Serum Corticosteroid Inhibition Assay measures the level of corticosteroid or corticosterone in the blood stream of a subject after administering a compound having a first corticosteroid-producing biological activity and a test compound. The compound having the corticosteroid-producing biological activity can be any compound known to induce a detectable increase in corticosteroid production. The test compound can be administered before the corticosteroid-producing compound, in combination with the corticosteroid-producing compound, and/or after the corticosteroid-producing compound. The corticosteroid-producing compound is preferably ACTH, but can also be an ACTH analog with a known corticosteroid-producing biological activity. By performing a series of in vivo Serum Corticosteroid Inhibition Assays using ACTH analog test compounds, ACTH analogs that inhibit the production of corticosteroid relative to the corticosteroid-producing compound used can be identified. Preferably, the ACTH analogs identified in this manner inhibit the production of corticosteroid in the presence of endogenous unmodified ACTH.
The in vivo Serum Corticosteroid Inhibition Assay can include sequential administration of the test compound and the corticosteroid-producing compound by the following steps: first, an agent to suppress endogenous ACTH production was administered to a mouse subject, such as an intraperitoneal injection of dexamethasone; second, after waiting a suitable period of time for suppression of endogenous ACTH production (e.g., 1.5–2.0 hours), a test compound was administered to the mouse by a suitable method, such as intraperitoneal injection; third, after waiting a suitable period of time (e.g., 1 hour) for action of the test compound, a compound with corticosteroid-producing activity can be administered to the mouse by a suitable method, such as intraperitoneal injection; and fourth, after waiting a suitable period of time for the biological activity of both administered compounds to occur (e.g., 1 hour), a blood sample was taken from the subject and the level of serum corticosterone was determined by a suitable method, such as a competitive radioimmunoassay using ^125I RIA kit (ICN, Costa Mesa, Calif.). Optionally, steps two and three can be reversed (administering the corticosteroid-producing compound first, followed by administration of the test compound). The in vivo Serum Corticosteroid Inhibition Assay can also include co-administration of the test compound and the corticosteroid-producing compound by the following steps: first, an agent to suppress endogenous ACTH production was administered to a mouse subject, such as an intraperitoneal injection of dexamethasone; second, after waiting a suitable period of time for suppression of endogenous ACTH production (e.g., 1.5–2.0 hours), the corticosteroid-producing compound and a test compound were co-administered to the mouse by a suitable method, such as intraperitoneal injection; and third, after waiting a suitable period of time for the biological activity of both administered compounds to occur (e.g., 1 hour), a blood sample was taken from the subject and the level of serum corticosterone was determined by a suitable method, such as a competitive radioimmunoassay using ^125I RIA kit (ICN, Costa Mesa, Calif.). Also, in some embodiments, the first step in any in vivo Serum Corticosteroid Inhibition Assay can be replaced by a measurement of the initial endogenous corticosteroid or corticosteroid level in the blood of the subject in the manner of step four, instead of administering the agent to suppress ACTH production. Example 2 describes murine in vivo Serum Corticosteroid Inhibition Assays in detail.
A series of separate in vivo Serum Corticosteroid Inhibition Assays were performed to identify ACTH analogs that inhibit ACTH adrenal hormone production in vivo. […]

The target in data set [2] is T1, adrenal ACTH receptors such as MC-2R (explanted adrenal membrane) (Mus musculus, UniProt Q64326).
T1 construct: the adrenal halves were macerated or otherwise dissociated using Dounce Homogenizer to form a membrane fraction; from tissue; host or cells: membrane fraction of explanted mouse adrenal glands
T1 sequence (Q64326 whole entry): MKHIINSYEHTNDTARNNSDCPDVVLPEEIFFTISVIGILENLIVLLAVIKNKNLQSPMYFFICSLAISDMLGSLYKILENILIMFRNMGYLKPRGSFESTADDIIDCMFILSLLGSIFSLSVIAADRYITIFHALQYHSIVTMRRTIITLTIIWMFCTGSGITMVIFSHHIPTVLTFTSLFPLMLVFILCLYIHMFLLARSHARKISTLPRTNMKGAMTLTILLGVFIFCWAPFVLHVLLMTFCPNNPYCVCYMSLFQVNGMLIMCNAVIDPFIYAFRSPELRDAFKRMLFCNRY
T1 sequence (Q9D159 whole entry partner): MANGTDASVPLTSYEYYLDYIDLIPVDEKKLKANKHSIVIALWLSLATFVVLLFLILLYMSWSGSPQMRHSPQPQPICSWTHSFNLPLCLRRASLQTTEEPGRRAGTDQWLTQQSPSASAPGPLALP
As to the kind of experiment: in vitro Serum-free Adrenal Competitive Binding Assay. Conditions: cold peptide at 10 nM, 100 nM, 1000 nM. On the set-up: species or system mice. The text has this:
ACTH analog compounds that bind to adrenal membrane with a greater affinity than endogenous unmodified ACTH, and are able to displace unmodified ACTH can be identified using an in vitro Serum-free Adrenal Competitive Binding Assay (Example 3). […] A higher CPM level indicates the presence of greater amounts of the radiolabelled compound. […] Column 220 indicates the level of radio-labeled unmodified mACTH(1–24) detected after combining the explanted adrenal membrane with only the radio-labeled mACTH(1–24) for 2 hours.(no competitive binding). Columns 230, 240, and 250 show the results of competitive binding assays for binding of non-radio-labeled (“cold”) mACTH(1–24) to displace the radio-labeled mACTH(1–24) from the explanted adrenal membrane (measured in column 220) by competitive binding to receptors such as MC-2R on the adrenal membrane. […]
ACTH analogs with the ability to bind adrenal receptors with a greater affinity than compounds with known adrenal binding activity (preferably ACTH) can also be identified by performing an in vitro Adrenal Competitive Binding Assay, whereby measurement of the reduction in the amount of the radiolabelled adrenal-binding compound (e.g., ACTH) is measured at various concentrations of non-radio-labeled ACTH analog test compound in a medium containing explanted adrenal membrane. […]

The conditions of data set [3]: in vivo; cited from earlier work.

Take “N-Ser^1-Tyr-Ser-Met-Glu^5-His-Phe-Arg-Trp-Gly^10-Lys-Pro-Val-Gly-Lys^15-Lys-Arg-Arg-Pro-Val^20-Lys-Val-Tyr-Pro-Ac [mACTH(1–24), reference compound]”: the “serum corticosterone level at 180 minutes” value in data set [1] and in data set [1] (listed as ACTH) was 500 ± 76 ng/mL in each case. Also, the “displacement of radio-labeled mACTH(1–24) from explanted adrenal membrane (CPM)” value in data set [2] is listed as “displacement of the radio-labeled mACTH(1–24)”. For the same substance, the “half life in blood” value in data set [3] is “less than 20 minutes”.

The values are drawn from patent US7264314B2, “Adrenocorticotropic hormone analogs and related methods” (priority 2004, dated 2007).
